{"source": "PubChem BioAssay AID1259409", "about": "(Chemical Carcinogenesis Research Information System (CCRIS), 2018)", "origin": "cited, not measured here", "system": "rodent chemically induced tumor inhibition, incidence and multiplicity", "assay": "CCRIS tumor inhibitor studies", "conditions": "Carcinogen: 2,2'-DIHYDROXY-DI-N-PROPYLNITROSAMINE, 53609-64-6, 13147-25-6, Carcinogen: 2,2'-DIHYDROXY-DI-N-PROPYLNITROSAMINE, 53609-64-6, 13147-25-6, Dose [Inhibitor]: 0, Route [Inhibitor]: ORAL, Species: RAT, Promoter: NONE USED; for tumour outcome (control, treated, inhibition, significance): N-ETHYL-N-HYDROXYETHYLNITROSAMINE, Dose [Carcinogen]: 1000 MG/KG BW DHPN TWICE"}
{"smiles": "O=P(O)(O)OC1C(OP(=O)(O)O)C(OP(=O)(O)O)C(OP(=O)(O)O)C(OP(=O)(O)O)C1OP(=O)(O)O", "note": "(stereo not given)", "values": [{"measurement": "outcome", "setting": "N-ETHYL-N-HYDROXYETHYL- NITROSAMINE, 3,2'-DIMETHYL-4-, N-ETHYL-N-HYDROXYETHYL- NITROSAMINE, 3,2'-DIMETHYL-4-, 2% IN DIET BEGINNING 1 WK POST LAST CARCINOGEN DOSE AND CONTINUING FOR 32 WK (STUDY DURATION: 36 WK), Strain/Sex: F344/MALE, Target Tissue: Type of Lesion: URINARY BLADDER: PAPILLOMA, Dose [Carcinogen]: 1000 MG/KG/ IP DHPN 2X, 1500 MG/KG/ GAV EHEN 2X AND 75 MG/KG SC DMAB 3X GIVEN OVER THE INITIAL 3 WK PERIOD AT 3-4 D INTE", "result": "0/14 (0%), 6/12 (50%), p<0.01n"}, {"measurement": "tumour outcome (control, treated, inhibition, significance)", "setting": "3,2'-DIMETHYL-1,4-, 3,2'-DIMETHYL-1,4-, 1% IN DIET FOR 4 WK BEGINNING 1 D PRIOR TO FIRST CARCINOGEN DOSE (STUDY DURATION: 36 WK), Strain/Sex: F344/MALE, Target Tissue: Type of Lesion: KIDNEY: ADENOMA, 1500 MG/KG EHEN TWICE, 75 MG/KG BW DMAB 3 TIMES, SEQUENTIALLY OVER 3 WK", "result": "6/10 (60%), 6/14 (43%), 28%, not significant"}, {"measurement": "tumour outcome (control, treated, inhibition, significance)", "setting": "3,2'-DIMETHYL-1,4-, 3,2'-DIMETHYL-1,4-, 1% IN DIET FOR 4 WK BEGINNING 1 D PRIOR TO FIRST CARCINOGEN DOSE (STUDY DURATION: 36 WK), Strain/Sex: F344/MALE, Target Tissue: Type of Lesion: LUNG: ADENOMA, 1500 MG/KG EHEN TWICE, 75 MG/KG BW DMAB 3 TIMES, SEQUENTIALLY OVER 3 WK", "result": "5/10 (50%), 9/14 (64%), -28%, not significant"}, {"measurement": "tumour outcome (control, treated, inhibition, significance)", "setting": "3,2'-DIMETHYL-4-AMINO-, 3,2'-DIMETHYL-4-AMINO-, 2% IN DIET FOR 32 WK BEGINNING 1 WK POST CARCINOGEN TREATMENT (STUDY DURATION: 36 WK0, Strain/Sex: F344/MALE, Target Tissue: Type of Lesion: KIDNEY: NEPHROBLASTOMA, 1500 MG/KG BW EHEN TWICE, 75 MG/KG BW 3 TIMES ADMINISTERED OVER FIRST 3 WK", "result": "2/14 (14%), 3/12 (25%), -79%, not significant"}, {"measurement": "tumour outcome (control, treated, inhibition, significance)", "setting": "3,2'-DIMETHYL-4-AMINO-, 3,2'-DIMETHYL-4-AMINO-, 2% IN DIET FOR 32 WK BEGINNING 1 WK POST CARCINOGEN TREATMENT (STUDY DURATION: 36 WK), Strain/Sex: F244/MALE, Target Tissue: Type of Lesion: THYROID GLAND: CARCINOMA, 1500 MG/KG BW EHEN TWICE, 75 MG/KG BW 3 TIMES ADMINISTERED OVER FIRST 3 WK", "result": "3/14 (21%), 2/12 (17%), 19%, not significant"}, {"measurement": "tumour outcome (control, treated, inhibition, significance)", "setting": "3,2'-DIMETHYL-4-AMINO-, 3,2'-DIMETHYL-4-AMINO-, 2% IN DIET FOR 32 WK BEGINNING 1 WK POST CARCINOGEN TREATMENT (STUDY DURATION: 36 WK), Strain/Sex: F344/MALE, Target Tissue: Type of Lesion: KIDNEY: ADENOMA, 1500 MG/KG BW EHEN TWICE, 75 MG/KG BW 3 TIMES ADMINISTERED OVER FIRST 3 WK", "result": "6/14 (43%), 7/12 (58%), -35%, not significant"}, {"measurement": "tumour outcome (control, treated, inhibition, significance)", "setting": "3,2'-DIMETHYL-4-AMINO-, 3,2'-DIMETHYL-4-AMINO-, 2% IN DIET FOR 32 WK BEGINNING 1 WK POST CARCINOGEN TREATMENT (STUDY DURATION: 36 WK), Strain/Sex: F344/MALE, Target Tissue: Type of Lesion: KIDNEY: TRANSITIONAL CELL CARCINOMA, 1500 MG/KG BW EHEN TWICE, 75 MG/KG BW 3 TIMES ADMINISTERED OVER FIRST 3 WK", "result": "1/14 (7%), 2/12 (17%), -143%, not significant"}, {"measurement": "tumour outcome (control, treated, inhibition, significance)", "setting": "3,2'-DIMETHYL-4-AMINO-, 3,2'-DIMETHYL-4-AMINO-, 2% IN DIET FOR 32 WK BEGINNING 1 WK POST CARCINOGEN TREATMENT (STUDY DURATION: 36 WK), Strain/Sex: F344/MALE, Target Tissue: Type of Lesion: LARGE INTESTINE: CARCINOMA, 1500 MG/KG BW EHEN TWICE, 75 MG/KG BW 3 TIMES ADMINISTERED OVER FIRST 3 WK", "result": "3/14 (21%), 4/12 (33%), -57%, not significant"}, {"measurement": "tumour outcome (control, treated, inhibition, significance)", "setting": "3,2'-DIMETHYL-4-AMINO-, 3,2'-DIMETHYL-4-AMINO-, 2% IN DIET FOR 32 WK BEGINNING 1 WK POST CARCINOGEN TREATMENT (STUDY DURATION: 36 WK), Strain/Sex: F344/MALE, Target Tissue: Type of Lesion: LIVER: HEPATOCELLULAR CARCINOMA, 15OO MG/KG BW EHEN TWICE, 75 MG/KG BW 3 TIMES ADMINISTERED OVER FIRST 3 WK", "result": "6/14 (43%), 1/12 (8%), 81%, not significant"}, {"measurement": "tumour outcome (control, treated, inhibition, significance)", "setting": "3,2'-DIMETHYL-4-AMINO-, 3,2'-DIMETHYL-4-AMINO-, 2% IN DIET FOR 32 WK BEGINNING 1 WK POST CARCINOGEN TREATMENT (STUDY DURATION: 36 WK), Strain/Sex: F344/MALE, Target Tissue: Type of Lesion: LUNG: ADENOMA, 1500 MG/KG BW EHEN TWICE, 75 MG/KG BW 3 TIMES ADMINISTERED OVER FIRST 3 WK", "result": "7/14 (50%), 9/12 (75%), -50%, not significant"}]}
